The source of these data is PubChem BioAssay (NCI).

Some test systems named below: CAKI-1 renal; HCT-116 colon; HOP-62 NSCLC; IGROV1 ovarian; KM12 colon; MALME-3M melanoma; MOLT-4 leukemia; OVCAR-8 ovarian; RXF 393 renal; UACC-257 melanoma.
Experiment in all cases: DTP human tumour cell line panel, 48 h

Values joined by “and” are separate entries in the source; they are usually repeats but may differ in a detail not shown here. Equal entries are not always repeated.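 How tested: cells in 96-well plates exposed to compound for 48 hours at five concentrations. The concentration for 50% growth inhibition is given as GI50. At the TGI there is no net growth.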 Where only a bound is given, the exact number is not on record here.

By GI50 is commonly meant the concentration at which growth is held to half of that of the control. In general, TGI refers to the concentration giving total growth inhibition. A lower TGI goes with more potent growth arrest. In the case of `c1ccc2c(CN3CCC(C4CCN(Cc5cccc6ccccc56)CC4)CC3)cccc2c1`, the GI50 in the experiment on CAKI-1 renal is 3.7 µM and 34.3 µM; with HCT-116 colon, 7.28 µM and 16.3 µM; in the experiment on IGROV1 ovarian, 32.2 µM and > 79.4 µM; with KM12 colon, 10.7 µM and 33.5 µM; with OVCAR-8 ovarian, 21.8 µM and 6.98 µM. Besides, the TGI in the experiment on CAKI-1 renal is 21.2 µM and > 100 µM; with HCT-116 colon it was 21.1 µM and > 58.2 µM; with HOP-62 NSCLC, 21.4 µM and > 69.4 µM; with IGROV1 ovarian, > 100 µM; in the experiment on KM12 colon, 33.7 µM and > 100 µM; with MALME-3M melanoma, 4.87 µM and 14.6 µM. Further, the TGI was 26.6 µM and 99.1 µM in the experiment on MOLT-4 leukemia; > 72.4 µM with OVCAR-8 ovarian; 26.9 µM and 43.3 µM with RXF 393 renal; 4.25 µM and 11.9 µM in the experiment on UACC-257 melanoma.

`CCCCN(CCCC)CCC(O)c1cc2ccc(C(F)(F)F)cc2c2cc(C(F)(F)F)ccc12` (stereo not drawn): the GI50 in the experiment with CAKI-1 renal was 2.61 µM; with HCT-116 colon, 1.59 µM; in the experiment on HOP-62 NSCLC, 2.2 µM; with IGROV1 ovarian, 3.47 µM; in the experiment with KM12 colon, 2.93 µM; in the experiment with MALME-3M melanoma, 2.34 µM. The GI50 in the experiment with MOLT-4 leukemia was 2.67 µM; in the experiment on OVCAR-8 ovarian it was 1.92 µM; in the experiment with RXF 393 renal, 1.56 µM; in the experiment on UACC-257 melanoma, 2.15 µM. In addition, the TGI in the experiment with CAKI-1 renal came out at 9.01 µM; in the experiment with HCT-116 colon it was 3.04 µM; with HOP-62 NSCLC, 5.68 µM; in the experiment with IGROV1 ovarian it was 14.5 µM; in the experiment with KM12 colon, 9.24 µM; with MALME-3M melanoma it was 5.51 µM. Also, the TGI in the experiment on MOLT-4 leukemia worked out at 6.66 µM; with OVCAR-8 ovarian it was 4.25 µM; in the experiment on RXF 393 renal, 3.16 µM; in the experiment with UACC-257 melanoma, 5.96 µM.

For the molecule `O=C1OC(OC/C(Br)=C(/Br)COC2OC(=O)C(Cl)=C2Cl)C(Cl)=C1Cl` (stereo not drawn), the TGI was 7.68 µM in the experiment with CAKI-1 renal; 10 µM in the experiment on HCT-116 colon; 28.8 µM with HOP-62 NSCLC; 28.2 µM in the experiment with IGROV1 ovarian; 21.8 µM in the experiment on KM12 colon; 21.2 µM with MALME-3M melanoma. For the same molecule, the TGI was 5.44 µM in the experiment with MOLT-4 leukemia, > 58 µM with OVCAR-8 ovarian, 13.4 µM in the experiment on RXF 393 renal and 25.5 µM with UACC-257 melanoma.

For `CNC(=O)c1cncc(/C=C/c2c(Cl)cccc2Cl)c1`, the GI50 in the experiment on CAKI-1 renal is 13.6 µM; in the experiment with HCT-116 colon, > 25 µM; in the experiment with HOP-62 NSCLC, > 25 µM; in the experiment with IGROV1 ovarian, > 17.9 µM; with KM12 colon, > 22.4 µM; in the experiment on MALME-3M melanoma, 12.9 µM. Also, the GI50 was > 21.9 µM in the experiment on MOLT-4 leukemia, > 25 µM with OVCAR-8 ovarian, 8.89 µM with RXF 393 renal and 24.7 µM with UACC-257 melanoma. Moreover, the TGI with CAKI-1 renal, with HCT-116 colon, with HOP-62 NSCLC, in the experiment on IGROV1 ovarian, with KM12 colon and in the experiment on MALME-3M melanoma was > 25 µM throughout. For the same molecule, the TGI in the experiment with MOLT-4 leukemia, with OVCAR-8 ovarian, in the experiment with RXF 393 renal and in the experiment on UACC-257 melanoma was > 25 µM each time.

For the molecule `CCN(CC)CCC(=O)O[C@H]1CC[C@H](CC(C)[C@H]2CC(=O)C(C)C=C(C)[C@H](OC(=O)CCN(CC)CC)C(OC)C(=O)[C@@H](C)CC(C)/C=C/C=C/C=C(C)C(OC)CC3CC[C@H](C)[C@](O)(O3)C(=O)C(=O)N3CCCCC3C(=O)O2)CC1OC` (stereo partly drawn), the TGI in the experiment with CAKI-1 renal was 3.06 µM; with HCT-116 colon, 2.57 µM and 2.54 µM; in the experiment with HOP-62 NSCLC, 1.73 µM and 2.75 µM; with IGROV1 ovarian it was 1.81 µM and 1.74 µM; with KM12 colon, > 10 µM and 2.03 µM; in the experiment on MOLT-4 leukemia, 5.39 µM and 1.32 µM. Further, the TGI in the experiment with OVCAR-8 ovarian is 3.49 µM and 2.21 µM; with RXF 393 renal, 2.2 µM; with UACC-257 melanoma it was 2.54 µM and 2.72 µM. The GI50 with HCT-116 colon was 1.24 µM; in the experiment with HOP-62 NSCLC, 0.00257 µM and 0.00547 µM; in the experiment with IGROV1 ovarian, 0.00595 µM; with MALME-3M melanoma, 0.0579 µM; in the experiment with MOLT-4 leukemia, 0.0255 µM; in the experiment with OVCAR-8 ovarian, 0.00624 µM.

On to `COc1ccc(/C=N\O[Si](C)(C)C(C)(C)C)cc1O[Si](C)(C)C(C)(C)C`, for which the TGI with CAKI-1 renal is 40.2 µM; in the experiment with HCT-116 colon, 29.1 µM; with HOP-62 NSCLC, 36 µM; in the experiment with IGROV1 ovarian, 36 µM; with KM12 colon it was 32.7 µM; in the experiment with MALME-3M melanoma, 37.4 µM. Further, the TGI was 36.5 µM in the experiment with MOLT-4 leukemia, 45.2 µM in the experiment with OVCAR-8 ovarian, 28.4 µM in the experiment on RXF 393 renal and 43.3 µM with UACC-257 melanoma.

Regarding `NS(=O)(=O)c1ccc(N2N=C(c3cccs3)CC2c2ccccc2O)cc1` (stereo not drawn), the GI50 in the experiment on CAKI-1 renal was 1.47 µM; in the experiment with HCT-116 colon, 1.15 µM; with HOP-62 NSCLC, 2.67 µM; in the experiment on IGROV1 ovarian, 1.6 µM; in the experiment with KM12 colon, 0.809 µM; in the experiment on MALME-3M melanoma, 4.81 µM. Also, the GI50 in the experiment on MOLT-4 leukemia is 1.27 µM; in the experiment with OVCAR-8 ovarian it was 0.907 µM; in the experiment on RXF 393 renal, 0.733 µM; with UACC-257 melanoma it was 1.47 µM. Also, the TGI was found to be 8.19 µM in the experiment on CAKI-1 renal; 3.96 µM in the experiment on HCT-116 colon; 9.46 µM in the experiment with HOP-62 NSCLC; 14.2 µM in the experiment with IGROV1 ovarian; 1.94 µM in the experiment on KM12 colon; 13.5 µM in the experiment with MALME-3M melanoma. The TGI in the experiment on MOLT-4 leukemia turned out to be 16.9 µM; in the experiment with OVCAR-8 ovarian, 2.78 µM; with RXF 393 renal, 2.2 µM; in the experiment on UACC-257 melanoma, 7.97 µM.

In the case of `O=C1C=C(OCCCl)C(=O)c2c(O)ccc(O)c21`, the GI50 in the experiment on CAKI-1 renal is 1.75 µM; with HCT-116 colon, 1.33 µM; in the experiment with HOP-62 NSCLC, 1.97 µM; in the experiment with KM12 colon, 6.4 µM; with MALME-3M melanoma, 0.215 µM; in the experiment with MOLT-4 leukemia, 0.368 µM. The figures for the GI50 in the experiment with OVCAR-8 ovarian and in the experiment on UACC-257 melanoma were 1.59 µM and 0.762 µM, respectively. The concentration for total growth inhibition (TGI) was 3.88 µM and 3.16 µM in the experiment on CAKI-1 renal; 1.33 µM and 3.2 µM in the experiment on HCT-116 colon; 1.52 µM and 3.39 µM in the experiment with HOP-62 NSCLC; 3.43 µM and 3.66 µM in the experiment with IGROV1 ovarian; 4.38 µM and 20.6 µM in the experiment with KM12 colon; 0.34 µM and 0.911 µM in the experiment with MALME-3M melanoma. Moreover, the TGI with MOLT-4 leukemia is 6.5 µM and 1.58 µM; in the experiment on OVCAR-8 ovarian, 5.08 µM and 3.03 µM; in the experiment on RXF 393 renal it was 3.38 µM and 3.96 µM; in the experiment with UACC-257 melanoma, 0.358 µM and 2.44 µM.
